Laboratory results as given in paper PMC9260974 (BMC Pharmacology & Toxicology, 2022).

What was measured:
clinical = conditions: human, in vivo
[1] = in vivo; cited from earlier work
[2] = Single-dose two-period crossover bioequivalence study, fasting: plasma pharmacokinetics of lisinopril and amlodipine (LC-MS/MS, NCA); conditions: for concentration at 0 h / concentration at 1 h / concentration at 2 h / concentration at 3 h / concentration at 4 h / concentration at 5 h / concentration at 6 h / concentration at 7 h / concentration at 8 h / concentration at 9 h / concentration at 10 h / concentration at 11 h / concentration at 12 h / concentration at 13 h / concentration at 24 h / concentration at 36 h / concentration at 48 h / concentration at 72 h / concentration at 96 h / concentration at 144 h / concentration at 168 h: human, plasma, po, Plasma concentration of amlodipine, reference (R) tablets; for concentration at 0 h: nominal time 0 h; for concentration at 1 h: nominal time 1 h; for concentration at 2 h: nominal time 2 h; for concentration at 3 h: nominal time 3 h; for concentration at 4 h: nominal time 4 h; for concentration at 5 h: nominal time 5 h; for concentration at 6 h: nominal time 6 h; for concentration at 7 h: nominal time 7 h; for concentration at 8 h: nominal time 8 h; for concentration at 9 h: nominal time 9 h; for concentration at 10 h: nominal time 10 h; for concentration at 11 h: nominal time 11 h; for concentration at 12 h: nominal time 12 h; for concentration at 13 h: nominal time 13 h; for concentration at 24 h: nominal time 24 h; for concentration at 36 h: nominal time 36 h; for concentration at 48 h: nominal time 48 h; for concentration at 72 h: nominal time 72 h; for concentration at 96 h: nominal time 96 h; for concentration at 144 h: nominal time 144 h; for concentration at 168 h: nominal time 168 h
[3] = amlodipine, intra-subject coefficient of variation

Tmax (clinical): ~6 h
Intra-CV (%) of AUC0-t [2, 3]: 9.9%
Intra-CV (%) of AUC0-∞ [2, 3]: 10.5%
Intra-CV (%) of Cmax [2, 3]: 9.7%
concentration at 0 h ([2]; Max, maximum over subjects): 0 ng/mL
concentration at 1 h ([2]; Max, maximum over subjects): 2.24 ng/mL
concentration at 2 h ([2]; Max, maximum over subjects): 2.57 ng/mL
concentration at 3 h ([2]; Max, maximum over subjects): 3.08 ng/mL
concentration at 4 h ([2]; Max, maximum over subjects): 2.45 ng/mL
concentration at 5 h ([2]; Max, maximum over subjects): 2.98 ng/mL
concentration at 6 h ([2]; Max, maximum over subjects): 4.18 ng/mL
concentration at 7 h ([2]; Max, maximum over subjects): 2.76 ng/mL
concentration at 8 h ([2]; Max, maximum over subjects): 3.48 ng/mL
concentration at 9 h ([2]; Max, maximum over subjects): 3.04 ng/mL
concentration at 10 h ([2]; Max, maximum over subjects): 2.86 ng/mL
concentration at 11 h ([2]; Max, maximum over subjects): 2.92 ng/mL
concentration at 12 h ([2]; Max, maximum over subjects): 2.98 ng/mL
concentration at 13 h ([2]; Max, maximum over subjects): 2.75 ng/mL
concentration at 24 h ([2]; Max, maximum over subjects): 2.45 ng/mL
concentration at 36 h ([2]; Max, maximum over subjects): 1.96 ng/mL
concentration at 48 h ([2]; Max, maximum over subjects): 1.69 ng/mL
concentration at 72 h ([2]; Max, maximum over subjects): 1.21 ng/mL
concentration at 96 h ([2]; Max, maximum over subjects): 1.11 ng/mL
concentration at 144 h ([2]; Max, maximum over subjects): 0.574 ng/mL
concentration at 168 h ([2]; Max, maximum over subjects): 0.455 ng/mL
concentration at 0 h ([2]; Mean, mean of subjects): 0 ng/mL
concentration at 1 h ([2]; Mean, mean of subjects): 0.686 ng/mL
concentration at 2 h ([2]; Mean, mean of subjects): 1.24 ng/mL
concentration at 3 h ([2]; Mean, mean of subjects): 1.51 ng/mL
concentration at 4 h ([2]; Mean, mean of subjects): 1.6 ng/mL
concentration at 5 h ([2]; Mean, mean of subjects): 2.03 ng/mL
concentration at 6 h ([2]; Mean, mean of subjects): 2.16 ng/mL
concentration at 7 h ([2]; Mean, mean of subjects): 2.04 ng/mL
concentration at 8 h ([2]; Mean, mean of subjects): 2.08 ng/mL
concentration at 9 h ([2]; Mean, mean of subjects): 1.96 ng/mL
concentration at 10 h ([2]; Mean, mean of subjects): 1.85 ng/mL
concentration at 11 h ([2]; Mean, mean of subjects): 1.77 ng/mL
concentration at 12 h ([2]; Mean, mean of subjects): 1.74 ng/mL
concentration at 13 h ([2]; Mean, mean of subjects): 1.65 ng/mL
concentration at 24 h ([2]; Mean, mean of subjects): 1.41 ng/mL
concentration at 36 h ([2]; Mean, mean of subjects): 1.13 ng/mL
concentration at 48 h ([2]; Mean, mean of subjects): 0.928 ng/mL
concentration at 72 h ([2]; Mean, mean of subjects): 0.64 ng/mL
concentration at 96 h ([2]; Mean, mean of subjects): 0.446 ng/mL
concentration at 144 h ([2]; Mean, mean of subjects): 0.2 ng/mL
concentration at 168 h ([2]; Mean, mean of subjects): 0.137 ng/mL
concentration at 0 h ([2]; Min, minimum over subjects): 0 ng/mL
concentration at 1 h ([2]; Min, minimum over subjects): 0.26 ng/mL
concentration at 2 h ([2]; Min, minimum over subjects): 0.452 ng/mL
concentration at 3 h ([2]; Min, minimum over subjects): 0.598 ng/mL
concentration at 4 h ([2]; Min, minimum over subjects): 0.834 ng/mL
concentration at 5 h ([2]; Min, minimum over subjects): 1.26 ng/mL
concentration at 6 h ([2]; Min, minimum over subjects): 1.14 ng/mL
concentration at 7 h ([2]; Min, minimum over subjects): 1.03 ng/mL
concentration at 8 h ([2]; Min, minimum over subjects): 0.988 ng/mL
concentration at 9 h ([2]; Min, minimum over subjects): 0.918 ng/mL
concentration at 10 h ([2]; Min, minimum over subjects): 0.806 ng/mL
concentration at 11 h ([2]; Min, minimum over subjects): 0.82 ng/mL
concentration at 12 h ([2]; Min, minimum over subjects): 0.829 ng/mL
concentration at 13 h ([2]; Min, minimum over subjects): 0.812 ng/mL
concentration at 24 h ([2]; Min, minimum over subjects): 0.603 ng/mL
concentration at 36 h ([2]; Min, minimum over subjects): 0.482 ng/mL
concentration at 48 h ([2]; Min, minimum over subjects): 0.391 ng/mL
concentration at 72 h ([2]; Min, minimum over subjects): 0.226 ng/mL
concentration at 96 h ([2]; Min, minimum over subjects): 0.123 ng/mL
concentration at 144 h ([2]; Min, minimum over subjects): 0 ng/mL
concentration at 168 h ([2]; Min, minimum over subjects): 0 ng/mL
SMILES: CCOC(=O)C1=C(COCCN)NC(C)=C(C(=O)OC)C1c1ccccc1Cl (centres unmarked) [amlodipine]
Absorption [1]: almost completely absorbed
